# From patent publication US20090130101A1, “ANTI-CANCER THERAPY WITH AN EXTRACT OF SCUTELLARIA BARBATA” (BIONOVO, INC., priority 2007, published 2009)
# What was measured:
# ROS = ROS generation, CM-H2DCFDA conversion; format: cell-based; details: incubation of cells with the ROS scavenger prior to addition of BZL101, FIG. 10
# [1] = test system: subcutaneous cancer xenografts; format: in vivo, mice; details: BZL101 0.5 ml oral gavage every third day; cyclophosphamide 25 mg/Kg/day in drinking water; FIG. 6
# Experimental: As in Example 1, above, 10^5 cells were administered to each animal subcutaneously on Day 0. The animals were divided into four groups. The control group received only normal drinking water. The cyclophosphamide only group received 25 mg/Kg/day of cyclophosphamide in their drinking water.
Structure (SMILES),effect on BZL101-induced ROS generation (ROS),tumor growth [1]
CC(=O)N[C@@H](CS)C(=O)O [N-acetyl-cysteine],prevented most of the increase in ROS generation,
O=P1(N(CCCl)CCCl)NCCCO1 (centres unmarked) [cyclophosphamide],,inhibited tumor growth as compared to the control
